From patent publication US20140363830A1, “COMPOUNDS THAT MODULATE HSP90 ACTIVITY AND METHODS FOR IDENTIFYING SAME” (SYNTA PHARMACEUTICALS CORP., priority 2006, published 2014) come the findings set out here.

The test system of data set [1] is c-kit. The data set can be described thus: FACS-based c-kit degradation assay in HEL92.1.7 cells. As to conditions: about 18 h. It counts as cell-based. The procedure:
(§1) Two leukemia cell lines, HEL92.1.7 and Kasumi-1, were used for testing c-kit degradation induced by Hsp90 inhibitors of the invention. […] The cells were collected and centrifuged (SORVALL RT 6000D) at 1200 rpm for 5 min. The supernatants were discarded, and the cells were washed one time with 1×PBS. After centrifugation the cells were stained with FITC conjugated c-kit antibody (MBL International, Cat #K0105-4) in 100 ml 1×PBS at 4° C. for 1 h. The samples were read and analysized with FACSCalibur flow cytometer (Becton Dicknson).

Data set [2] has as its system RERF-LC-AI^IVP human lung tumor cells. In words: RERF-LC-AI^IVP nude mouse xenograft model. It counts as in vivo. The procedure:
The human squamous non-small cell lung cancer cell line, RERF-LC-AI (RCB0444; S. Kyoizumi, et al., Cancer. Res. 45:3274-3281, 1985), was obtained from the Riken Cell Bank (Tsukuba, Ibaraki, Japan). […] FBS was obtained from American Type Culture Collection (Manassas, Va., USA) and all other reagents were obtained from Invitrogen Corp. (Carlsbad, Calif., USA). Approximately 4-5×10(6) cells that had been cryopreserved in liquid nitrogen were rapidly thawed at 37° C. and transferred to a 175 cm^2 tissue culture flask containing 50 ml of growth media and then incubated at 37° C. in a 5% CO2 incubator.
(§2) The growth media was replaced every 2-3 days until the flask became 90% confluent, typically in 5-7 days. To passage and expand the cell line, a 90% confluent flask was washed with 10 ml of room temperature phosphate buffered saline (PBS) and the cells were disassociated by adding 5 ml 1× trypsin-EDTA (Invitrogen) and incubating at 37° C. until the cells detached from the surface of the flask. To inactivate the trypsin, 5 ml of growth media was added and then the contents of the flask were centrifuged to pellet the cells. The supernatant was aspirated and the cell pellet was resuspended in 10 ml of growth media and the cell number determined using a hemocytometer. Approximately 1−3×10(6) cells per flask were seeded into 175 cm^2 flasks containing 50 ml of growth media and incubated at 37° C. in a 5% CO2 incubator. When the flasks reached 90% confluence, the above passaging process was repeated until sufficient cells had been obtained for implantation into mice.
Seven to eight week old, female Crl:CD-1-nuBR (nude) mice were obtained from Charles River Laboratories (Wilmington, Mass., USA) Animals were housed 4-5/cage in micro-isolators, with a 12 hr/12 hr light/dark cycle, acclimated for at least 1 week prior to use and fed normal laboratory chow ad libitum. Studies were conducted on animals between 8 and 12 weeks of age at implantation. […] Using a 27 gauge needle and 1 cc syringe, 0.1 ml of the cell suspension was injected subcutaneously into the flank of each nude mouse. Tumor volumes (V) were calculated by caliper measurement of the width (W), length (L) and thickness (T) of tumors using the following formula: V=0.5236×(L×W×T).
In vivo passaged RERF-LC-AI tumor cells (RERF-LC-AI^IVP) were isolated to improve the rate of tumor implantation relative to the parental cell line in nude mice. RERF-LC-AI tumors were permitted to develop in vivo until they reached approximately 250 mm^3 in volume, which required approximately 3 weeks following implantation. Mice were euthanized via CO2 asphyxiation and their exteriors sterilized with 70% ethanol in a laminar flow hood. Using sterile technique, tumors were excised and diced in 50 ml PBS using a scalpel blade. A single cell suspension was prepared using a 55 ml Wheaton Safe-Grind tissue grinder (catalog #62400-358; VWR International, West Chester, Pa., USA) by plunging the pestle up and down 4-5 times without twisting. The suspension was strained through a […] nylon cell strainer and then centrifuged to pellet the cells. The resulting pellet was resuspended in 0.1 M NH4Cl to lyse contaminating red blood cells and then immediately centrifuged to pellet the cells. The cell pellet was resuspended in growth media and seeded into 175 cm^2 flasks containing 50 ml of growth media at 1-3 tumors/flask or approximately 10×10(6) cells/flask. […]

Data set [3] has as its system c-kit. In words: Western blot analysis of c-Kit in Kasumi-1 cells. The data set is classed as cell-based. The source says: The results of the FACS analysis were confirmed with Western blot analysis (see FIG. 5). […] In contrast, 17-AAG had no effect of c-Kit protein levels.
The subject of data set [4] is c-kit. In words: FACS-based c-kit degradation assay in Kasumi-1 cells. The data set is classed as cell-based. As to conditions: about 18 h. The procedure: as §1
Data set [5] relates to human tumor cell line MDA-MB-435S. In words: MDA-MB-435S nude mouse xenograft model. The data set is classed as in vivo. As to conditions: 300 mg/kg body weight IP, 5 days per week for 3 weeks. The procedure: as §2, with “FBS was obtained from Sigma-Aldrich Corp. (St. Louis, Mo., USA), and all other reagents were obtained from Invitrogen Corp. (Carlsbad, Calif., USA). Approximately 4-5×10(6) cells that had been cryopreserved in liquid nitrogen were rapidly thawed at 37° C. and transferred to a 175 cm^2 tissue culture flask containing 50 ml of growth media and then incubated at 37° C. in a 5% CO2 incubator. The growth” for “The growth”, “ml 1× Trypsin-EDTA (Invitrogen) and” for “ml 1× trypsin-EDTA (Invitrogen) and”, “hemocytometer. Approximately 1-3×10(6) cells per” for “hemocytometer. Approximately 1−3×10(6) cells per”
Six to eight week old, female Crl:CD-1-nuBR (nude) mice were obtained from Charles River Laboratories (Wilmington, Mass., USA) Animals were housed 4-5/cage in micro-isolators, with a 12 hr/12 hr light/dark cycle, acclimated for at least 1 week prior to use and fed normal laboratory chow ad libitum. Studies were conducted on animals between 7 and 12 weeks of age at implantation. […] Tumor volumes (V) were calculated by caliper measurement of the width (W), length (L) and thickness (T) of tumors using the following formula: V=[…]×(L×W×T) Animals were randomized into treatment groups so that the average tumor volumes of each group were similar at the start of dosing. […]

A further data set relates to Her2. The data set can be described thus: Degradation of Her2 in BT-474 cells (Western blot). It counts as cell-based, Human. As to conditions: for Her2 degradation: overnight. The procedure: Human high-Her2 breast carcinoma BT474 (HTB-20), SK-BR-3 (HTB-30) and MCF-7 breast carcinoma (HTB-22) from American Type Culture Collection, VA, USA were grown in Dulbecco's modified Eagle's medium with 4 mM L-glutamine and antibiotics (100 IU/ml penicillin and 100 ug/ml streptomycine; GibcoBRL). To obtain exponential cell growth, cells were trypsinized, counted and seeded at a cell density of 0.5×10^6 cells/ml regularly, every 3 days. All experiments were performed on day 1 after cell passage.
After treatment, each cytoplasmic sample was prepared from 1×10^6 cells by incubation of cell lysis buffer (#9803, cell Signaling Technology) on ice for 10 minutes. The resulting supernatant used as the cytosol fractions were dissolved with sample buffer for SDS-PAGE and run on a SDS-PAGE gel, blotted onto a nitrocellulose membrane by using semi-dry transfer. Non-specific binding to nitrocellulose was blocked with 5% skim milk in TBS with 0.5% Tween at room temperature for 1 hour, then probed with anti-Her2/ErB2 mAb (rabbit IgG, #2242, Cell Signaling) and anti-Tubulin (T9026, Sigma) as housekeeping control protein. HRP-conjugated goat antirabbit IgG (H+L) and HRP-conjugated horse antimouse IgG (H+L) were used as secondary Ab (#7074, #7076, Cell Signaling) and LumiGLO reagent, 20× Peroxide (#7003, Cell Signaling) was used for visualization.
A general note: In western blotting, separated proteins are transferred to a membrane and probed.

Where [6] appears, read: 200 mg/kg body weight i.p., 5 days per week, 15 doses.

As to `C=CCNC1=C2C[C@@H](C)C[C@H](OC)[C@H](O)[C@@H](C)/C=C(\C)[C@H](OC(N)=O)[C@@H](OC)/C=C\C=C(/C)C(=O)NC(=CC1=O)C2=O` [Compound 17-AAG, 17-allylamino-17-demethoxygeldanamycin, reference compound], the c-kit degradation entry in the data set on c-kit [1] (0.5 μM) and in the data set with c-kit [4] (0.5 μM) was “could not induce c-kit degradation” in each case. In addition, the “growth rate of RERF-LC-AI^IVP human lung tumor cells in nude mice” value in data set [2] (75 mg/kg body weight i.p., 5 days per week, 15 doses) was “decreased the growth rate”. For the same compound, in data set [2] (i.p., 5 times per week), the “maximum tolerated dose in nude mice” value is ~75 mg/kg body weight. In the data set on c-kit [3] (concentration not given), the “c-Kit protein levels (Western blot)” value is reported as “had no effect”.
Turning to `CCc1cc(-c2nnc(S)n2-c2cccc3ccccc23)c(O)cc1O` [Compound 49, 3-(2,4-Dihydroxy-5-ethyl-phenyl)-4-(naphthalen-1-yl)-5-mercapto-[1,2,4]triazole], the “effect on body weights” value in data set [5] is listed as “lack of an effect on body weights”. Further, the toxicity entry in data set [5] is “not associated with significant toxicity”. The “growth rate of MDA-MB-435S cells in nude mice” value in data set [5] (compared with 100 mg/kg 17-AAG) is on record as “decreased the growth rate of MDA-MB-435S cells in nude mice to a greater extent than did a dose of 100 mg/kg body weight of the Hsp90 inhibitor 17-AAG”. In the data set with Her2, the “Activity in Her2 degradation relative to Compound 108” value is “even more active than Compound 108”. Further, the Her2 degradation entry with Her2 (0.5 μM) was “partial degradated”; in the data set with Her2 (2 μM), “complete degradation”; with Her2 (5 μM), “complete degradation”.
With `CC(C)c1cc(-c2nnc(S)n2-c2ccc3c(ccn3C)c2)c(O)cc1O` [Compound 221, 3-(2,4-dihydroxy-5-isopropyl-phenyl)-4-(N-methyl-indol-5-yl)-5-mercapto-[1,2,4]triazole], the c-kit degradation entry in the data set on c-kit [1] (0.05 μM), with c-kit [1] (0.5 μM), in the data set on c-kit [4] (0.05 μM) and in the data set on c-kit [4] (0.5 μM) was “induced c-kit degradation” in each case. For the same compound, the “degradation of c-Kit (Western blot)” value in the data set with c-kit [3] (100 nM) and in the data set with c-kit [3] (400 nM) was “induced the degradation of c-Kit” in each case.
`CCc1cc(-c2nnc(S)n2-c2ccc(OC)c3c2ccn3C(C)C)c(O)cc1O` [Compound 188, 3-(2,4-Dihydroxy-5-ethyl-phenyl)-4-(1-isopropyl-7-methoxy-indol-4-yl)-5-mercapto-[1,2,4]triazole]: the c-kit degradation entry with c-kit [1] (0.05 μM), with c-kit [1] (0.5 μM), with c-kit [4] (0.05 μM) and in the data set on c-kit [4] (0.5 μM) was “induced c-kit degradation” in each case. For the same compound, in data set [2] (setting [6]), the “effect on body weights” value was “minimal effect on body weights”. Besides, the “growth rate of RERF-LC-AI^IVP human lung tumor cells in nude mice” value in data set [2] (setting [6]) is recorded as “decreased the growth rate”. Moreover, the “maximum tolerated dose in nude mice” value in data set [2] (mouse, in vivo, ip) is ~200 mg/kg body weight.
